# Tests used:
# [1] = test system: pre-osteoclast Raw 264.7 cells; experiment: Osteoclastogenesis coculture assay (TRAP staining); format: cell-based, mouse; conditions: 15-fold increase by JAG1 OE relative to controls; 1 μM MRK-003; FIG. 15A
# Procedure: After seeding 5×10^4 control or JAG1 OE tumor cells/well into 12-well plates, murine pre-osteoclast Raw 264.7 (2×10^5 cells/well) or MOCP5 (5×10^5 cells/well) cells in media containing 30 ng/ml RANKL and DMSO or 1 μM MRK-003 were added the next day. Media were changed every 2 days. TRAP staining was performed on day 6 using a leukocyte acid phosphatase kit (Sigma). TRAP^+-multinucleated cells were scored as mature osteoclasts. The number of nuclei per osteoclast was quantified using TRAP-stained images. Mouse specific qRT-PCR primers were used to selectively quantify Raw264.7 osteoclast gene expression levels after 6 days of coculture (see Table 1 below).
# For primary osteoclast coculture assays, bone marrow cells were flushed out from femora and tibiae of 4- to 6-week-old wild-type FVB mice and plated in basal culture medium overnight. The next day, nonadherent cells were added at 1×10^6/well to 12-well plates that were previously seeded with either control or JAG1 OE tumor cells supplemented with 50 ng/ml RANKL and 50 ng/ml M-CSF. Medium was changed every 3 days. TRAP staining and scoring were performed on days 10-12.
# JAGGED1 = JAGGED1 mRNA and protein after TGFβ treatment of breast cancer cells in vitro; format: cell-based, human; conditions: several breast cancer cell lines; FIG. 5A
# Procedure: SDS lysis buffer (0.05 mM Tris-HCl, 50 mM BME, 2% SDS, 0.1% Bromophenol blue, 10% glycerol) was used to collect protein from cultured cells. Heat denatured protein was then equally loaded, separated on an SDS-page gel, transferred onto a pure nitrocellulose membrane (BioRad), and blocked with either 5% milk or 5% BSA. Primary antibodies for immunoblotting included: goat anti-JAGGED1 (1:1000 dilution, sc-6011, Santa Cruz), rabbit anti-phosho-SMAD2 (1:1000 dilution, Ser465/467, Cell Signaling), and mouse anti-β-actin (1:4000 dilution, Abcam) for loading control. Membranes were incubated with horseradish peroxidase (HRP)-conjugated anti-mouse secondary antibody (1:2000 dilution, GE Healthcare) or anti-rabbit secondary antibody (1:2000 dilution, GE Healthcare) for 1 h and chemiluminescence signals were detected by ECL substrate (GE Healthcare).
# (§1) For in vitro experiments, GSI-IX (Calbiochem) and TGFβ Receptor 1 (EMD Biosciences 616451) were dissolved in DMSO. […] RNA and protein were collected and analyzed for JAGGED1 expression as described above. […]
# RNA from in vitro cultured cells or flow cytometry-separated cells was collected in RLT lysis buffer and extracted with RNeasy mini kit (Qiagen). […] Quantitative RT-PCR was performed using Power Syber Green PCR Master Mix (Applied Biosystems) with the ABI Prism 7900HT thermocycler (Applied Biosystems) according to the manufacturer's protocol. […]
# [2] = test system: SCP28 tumor cells cocultured with MC3T3-E1 osteoblasts; experiment: Osteoblast coculture tumor cell quantification by luciferase assay; format: cell-based, human; conditions: cocultured with MC3T3-E1; hIL-6 10 or 100 ng/ml; FIG. 14B
# Procedure: MC3T3-E1 cells were seeded at 2×10^5 cells/well in 12-well plates. After confluence was achieved, luciferase/GFP-labeled (GFP+) control and JAG1 OE cells were added at 1×10^4 cells/well in triplicate and treated with DMSO or 1 μM MRK-003. Media supplemented with appropriate drugs were changed every 2 days. After 6 days the coculture was subjected to a luciferase assay to selectively quantify the number of tumor cells. These values were normalized against luciferase quantification of 12-well plates seeded with tumor cells alone.
# For transfection experiments, MC3T3-E1 osteoblasts were seeded at 2×10^5 cells/well in 12-well plates and grown to 95% confluence. […] Following 6 days, the coculture was lysed and subjected to a luciferase assay to selectively quantify the number of tumor cells. For gene expression analysis, RNA from cocultures was collected in RLT lysis buffer, extracted with RNeasy mini kit (Qiagen), and subjected to quantitative RT-PCR.
# as §1
# [3] = test system: SCP2 and 1833 bone metastasis; experiment: Bone metastasis xenograft with JAG1 knockdown SCP2 and 1833 cells; format: in vivo, mouse
# Procedure: (§2) For bone metastsis studies, 10^5 tumor cells were injected into the left cardiac ventricle of anesthetized female athymic Ncr-nu/nu or BALB/c mice. Development of metastases was monitored by BLI. Bioluminescence images were acquired with a Xenogen IVIS 200 Imaging System. Analysis was performed with Living Image software by measuring photon flux in the hindlimbs of mice. Data were normalized to the signal on day 7. Bone metastasis-free survival curves represent the time point at which each mouse developed bone metastasis by threshold BLI signals in the hindlimbs. For the orthotopic xenograft model, mammary fat pad injections and primary tumor size measurements were performed following the procedure described previously (Minn et al., 2005, which is incorporated herein by reference as if fully set forth).
# After 48 hours viruses were collected, filtered and used to infect target cells in the presence of 5 μg/ml polybrene. The infected cells were selected with 1 μg/ml puromycin. […]
# Hindlimb bones were excised from mice at the end point of each experiment, immediately after the last BLI time point. […] For quantitative analysis of lesion area, a 5× objective was used to focus on the tumor region of interest and images were acquired using the AxioCamICc3 camera set to an exposure of 100 ms. Lesions that were larger than the field of view were quantified by acquiring multiple images to encompass the entire lesion. The “spline” function of the AxioVision software was used to outline the region of interest and subsequently quantify the lesion area. Osteoclast number was assessed as multinucleated TRAP^+ cells along the tumor-bone interface and reported as number/mm of interface (Yin et al., 2003, which is incorporated herein by reference as if fully set forth). […]
# [4] = test system: SCP2 and 1833 tumor cells; experiment: Proliferation of JAG1 KD tumor cells in culture or as mammary tumors; set-up: species or system human
# Procedure: as §2
# After 48 hours viruses were collected, filtered and used to infect target cells in the presence of 5 μg/ml polybrene. The infected cells were selected with 1 μg/ml puromycin. For stable overexpression in the SCP28 human breast cancer cell line, human JAGGED1 cDNA was PCR amplified using the primer pair: 5′-[…]-3′ (Sense) [SEQ ID NO: 2] and 5′-[…]-3′ (Antisense) [SEQ ID NO: 3] and cloned into the retroviral expression vector pMSCVpuro using XhoI and EcoRI restriction sites (underlined=restriction sites, bold=human JAG1-specific sequences). […]
molecule,measurement,setting,value
C[C@H](NC(=O)Cc1cc(F)cc(F)c1)C(=O)N[C@H](C(=O)OC(C)(C)C)c1ccccc1 [GSI IX],TRAP+ osteoclasts in JAG1 OE cocultures,[1],confirmed
TGFβ: Recombinant human TGFβ1 (R&D systems),Jagged1 expression upon TGFβ stimulation,JAGGED1,potently upregulated
rIL-6: Recombinant human IL-6 (R&D systems),proliferative ability of control tumor cells,[2],significantly enhanced
rJAG1: Recombinant rat JAGGED1/Fc chimera (R&D systems),TRAP+ osteoclasts in JAG1 OE cocultures,[1],confirmed
"JAG1 KD: shRNA targeting CGTACAAGTAGTTCTGTAT of JAG1 (SEQ ID NO: 1; same as sense strand SEQ ID NO: 78, shRNA SEQ ID NO: 80) (nucleic acid) GATCTCCCGTACAAGTAGTTCTGTATTTCAAGAGAATACAGAACTACTTGTACGTTTTTGGAAAAGCTTTTCCAAAAACGTACAAGTAGTTCTGTATTCTCTTGAAATACAGAACTACTTGTACGGGA",onset of bone metastasis,[3]; SCP2 and 1833 with JAG1 shRNA,delayed
same,survival of mice,[3]; SCP2 and 1833 with JAG1 shRNA,significantly extended
same,decrease in the number of TRAP+ osteoclasts along the bone tumor interface,[3]; histological analysis,2 fold
same,ability of tumor cells to proliferate in culture or as mammary tumors in mice,[4],did not alter
